This experiment concerns BM-DCs. Nature of the experiment: Flow cytometric analysis of CD1a, b, c expression on BM-DCs of hCD1Tg mice. The experiment is classed as cell-based, mouse. The note with it: BM-DCs from hCD1Tg mice cultured in GM-CSF and IL-4. Background: A flow cytometer gives signals particle by particle.

Turning to “IFN-γ: cytokine tested for upregulation of CD1 on BM-DCs”, the “Upregulation of CD1a, b, and c expression on BM-DCs” value is given as “cannot be upregulated”.

With TNF-α, the “Upregulation of CD1a, b, and c expression on BM-DCs” value is recorded as “cannot be upregulated”.

The values are drawn from patent US20060021075A1, “Group 1 CD1 transgenic mice and their uses” (priority 2004, published 2006).
